In data set [1] the test system is human colon cancer cell line KM12 subcutaneous xenograft tumor. Put plainly: In vivo efficacy, subcutaneous xenograft tumor of human colon cancer KM12. More on the design: species or system BALB/c mouse. The conditions noted are these: PO. How it is done: Experimental object: evaluation of the in vivo efficacy of test drugs such as WX002A on subcutaneous xenograft tumor of human colon cancer cell line KM12 cell in BALB/c mouse model.
(§1) Drug preparation: The compounds were all prepared into clear solutions with 5% DMSO+10% solutol+85% water as solvent for administration in the PO (intragastric) group.
Tumor measurement: the tumor diameters were measured with a vernier caliper twice a week. The calculation formula of tumor volume is: V=0.5×a×b^2, wherein a and b represent the long diameter and short diameter of the tumor, respectively. The anti-tumor efficacy of the compounds is evaluated by TGI (%). TGI (%) reflects tumor growth inhibition rate.
Statistical analysis: The statistical analysis was based on the relative tumor volume and tumor weight at the end of the experiment using SPSS software. One-way ANOVA was used to analyze the comparison between multiple groups. […] P<0.05 was considered to indicate significant difference.

Data set [2] deals with human lung cancer LU-01-0414 subcutaneous xenograft tumor. As to the kind of experiment: In vivo efficacy, subcutaneous xenograft tumor of human lung cancer LU-01-0414. Further details: species or system BALB/c mouse. The conditions noted are these: LU-01-0414 xenograft, 14th day, PO. How it is done: Experimental object: evaluation of the in vivo efficacy of test drugs such as WX002A on subcutaneous xenograft tumor of human lung cancer LU-01-0414 in BALB/c mouse model.
as §1
Tumor measurement: the tumor diameters were measured with a vernier caliper twice a week. The calculation formula of tumor volume is: V=0.5×a×b^2, wherein a and b represent the long diameter and short diameter of the tumor, respectively. The anti-tumor efficacy of the compounds was evaluated by TGI (%). TGI (%) reflects tumor growth inhibition rate.
Statistical analysis: the statistical analysis was based on the relative tumor volume and tumor weight at the end of the experiment using SPSS software. One-way ANOVA was used to analyze the comparison between multiple groups. […] P<0.05 was considered to indicate significant difference.
(In general: Xenograft models place foreign cells or tissue in a host animal.)

In data set [3] the target is T1, Ba/F3 LMNA-NTRK1-F589L stably transfected cell line (Homo sapiens, UniProt P04629, F589L, cells depend on it).
T1 construct: fused on or other part: P02545 (Prelamin-A/C)
T1 sequence (P04629 whole entry F589L, the tested form may be a part): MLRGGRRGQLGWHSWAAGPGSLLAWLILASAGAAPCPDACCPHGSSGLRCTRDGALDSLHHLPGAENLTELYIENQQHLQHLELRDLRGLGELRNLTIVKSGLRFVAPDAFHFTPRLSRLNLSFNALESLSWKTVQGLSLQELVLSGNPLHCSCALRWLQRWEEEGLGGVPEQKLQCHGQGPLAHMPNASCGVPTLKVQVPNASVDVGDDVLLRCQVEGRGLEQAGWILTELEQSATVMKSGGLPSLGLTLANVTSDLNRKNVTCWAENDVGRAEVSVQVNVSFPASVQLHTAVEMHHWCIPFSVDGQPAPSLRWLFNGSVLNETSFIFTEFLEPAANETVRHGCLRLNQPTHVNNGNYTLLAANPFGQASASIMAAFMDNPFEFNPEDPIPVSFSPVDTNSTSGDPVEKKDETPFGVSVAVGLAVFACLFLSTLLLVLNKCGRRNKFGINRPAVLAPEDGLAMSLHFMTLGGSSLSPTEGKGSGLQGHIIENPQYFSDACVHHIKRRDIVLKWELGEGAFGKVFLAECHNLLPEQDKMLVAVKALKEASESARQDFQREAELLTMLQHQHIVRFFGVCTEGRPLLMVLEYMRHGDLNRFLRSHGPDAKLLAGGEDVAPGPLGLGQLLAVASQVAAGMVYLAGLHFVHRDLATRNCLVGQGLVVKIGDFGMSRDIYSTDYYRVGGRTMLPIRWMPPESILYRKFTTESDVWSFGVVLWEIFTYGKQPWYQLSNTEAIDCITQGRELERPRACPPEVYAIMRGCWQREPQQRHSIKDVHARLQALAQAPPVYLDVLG
As to the kind of experiment: Cell proliferation inhibition (CellTiter-Glo). Type of data set: cell-based. The conditions noted are these: 72 hours, read-out: The half maximal inhibitory concentration IC50 against cells, Ba/F3 LMNA-NTRK1-F589L.

In the next data set the target is T2, ALK (Homo sapiens, UniProt Q9UM73).
T2 construct: purchased Reaction Biology Corp. (contract assay)
T2 sequence (Q9UM73 19-1620): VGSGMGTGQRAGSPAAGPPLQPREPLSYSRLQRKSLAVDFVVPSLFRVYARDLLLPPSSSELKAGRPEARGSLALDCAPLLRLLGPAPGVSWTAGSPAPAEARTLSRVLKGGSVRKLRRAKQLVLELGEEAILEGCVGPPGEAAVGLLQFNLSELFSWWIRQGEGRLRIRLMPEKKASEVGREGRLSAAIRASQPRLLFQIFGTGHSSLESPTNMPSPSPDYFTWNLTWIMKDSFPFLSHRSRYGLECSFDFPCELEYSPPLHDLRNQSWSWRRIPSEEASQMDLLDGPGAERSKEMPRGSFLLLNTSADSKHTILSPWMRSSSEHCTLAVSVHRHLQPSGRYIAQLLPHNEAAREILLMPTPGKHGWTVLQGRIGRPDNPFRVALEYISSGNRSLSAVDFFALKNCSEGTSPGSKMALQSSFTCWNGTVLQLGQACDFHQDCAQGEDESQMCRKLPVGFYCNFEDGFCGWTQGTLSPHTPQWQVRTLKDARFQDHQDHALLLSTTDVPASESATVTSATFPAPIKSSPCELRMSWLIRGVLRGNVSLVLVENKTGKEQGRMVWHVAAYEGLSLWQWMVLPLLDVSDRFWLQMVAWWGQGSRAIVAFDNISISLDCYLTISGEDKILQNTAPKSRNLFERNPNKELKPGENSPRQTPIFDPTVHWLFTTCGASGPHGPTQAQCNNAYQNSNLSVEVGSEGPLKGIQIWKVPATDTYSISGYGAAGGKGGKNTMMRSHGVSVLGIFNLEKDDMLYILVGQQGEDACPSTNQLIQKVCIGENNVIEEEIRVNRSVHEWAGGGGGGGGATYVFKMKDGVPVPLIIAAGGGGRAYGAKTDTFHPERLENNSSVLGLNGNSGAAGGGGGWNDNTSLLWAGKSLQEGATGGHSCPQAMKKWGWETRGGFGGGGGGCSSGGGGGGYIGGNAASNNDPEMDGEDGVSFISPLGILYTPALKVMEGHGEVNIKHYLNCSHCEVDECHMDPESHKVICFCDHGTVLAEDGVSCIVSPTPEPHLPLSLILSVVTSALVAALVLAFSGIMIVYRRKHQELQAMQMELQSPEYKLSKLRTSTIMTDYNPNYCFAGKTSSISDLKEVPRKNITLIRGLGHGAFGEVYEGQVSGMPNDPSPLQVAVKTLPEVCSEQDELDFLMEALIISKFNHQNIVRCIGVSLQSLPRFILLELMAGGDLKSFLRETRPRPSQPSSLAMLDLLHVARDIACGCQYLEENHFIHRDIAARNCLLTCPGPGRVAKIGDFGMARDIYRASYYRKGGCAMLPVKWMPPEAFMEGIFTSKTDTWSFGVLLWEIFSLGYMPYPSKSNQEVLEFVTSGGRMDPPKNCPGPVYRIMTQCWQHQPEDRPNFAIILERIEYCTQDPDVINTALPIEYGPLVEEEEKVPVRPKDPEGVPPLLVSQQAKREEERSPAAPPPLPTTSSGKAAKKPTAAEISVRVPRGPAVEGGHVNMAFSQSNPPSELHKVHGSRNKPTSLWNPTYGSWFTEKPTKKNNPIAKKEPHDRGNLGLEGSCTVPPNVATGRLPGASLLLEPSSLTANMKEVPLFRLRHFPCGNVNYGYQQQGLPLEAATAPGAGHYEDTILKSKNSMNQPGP
Put plainly: Kinase inhibitory activity (33P-ATP filter binding, Reaction Biology Corp.). Type of data set: biochemical. The conditions noted are these: read-out: The half maximal inhibitory concentration IC50 on the kinases, ALK. The procedure, abridged:
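Compounds (10 concentrations, 3-fold dilutions, 2% DMSO final) preincubated 20 min at room temperature with kinase and substrate in Hepes pH 7.5 buffer. Reaction started with ^33P-ATP, 120 min at room temperature; filter-binding radioactivity expressed as activity remaining versus DMSO control, IC50 from fitted dose-response curve.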

A short description of data set [4]: In vivo cassette pharmacokinetic test in mice. More on the design: species or system male CD-1 mice. The conditions noted are these: cassette, mice. The procedure:
The dose of the compounds: […] PO dose of 3 mg/kg, and administration volume of 3 mL/kg.

The record followed here is US11464780B2, “Pyrazolopyrimidine derivative and use thereof” (Simcere Pharmaceutical Co. Ltd., priority 2018, dated 2022).

pIC50: −log10 of the molar value.

As a reminder, the T/C is the result in the treated group divided by that in the control group, in per cent.

As for `O=C1NC2(CC2)COc2ncc(F)cc2[C@H]2CCON2c2ccn3ncc1c3n2` [WX002A], in data set [1] (dose of 3 mg/kg), the T/C stood at 33.18% and the TGI turned out to be 71.23%. For the same molecule, in data set [1] (dose of 15 mg/kg), the T/C is listed as 15.63% and the TGI amounted to 88.61%. In data set [2] (3 mg/kg BID), the T/C came to 9.57% and the TGI is 118.02%. In data set [2] (15 mg/kg BID), the T/C came out at 3.07% and the TGI is reported as 126.88%. Besides, in data set [2] (30 mg/kg BID), the T/C was 1.87% and the TGI turned out to be 128.36%. Also, the GI50 in data set [3] was found to be 0.78 nM. Besides, the pIC50 on ALK is 7.89. In data set [4] (IV @ 1 mpk), the “Apparent clearance Cl” value turned out to be 6.3 mL/min/kg, the “Apparent volume of distribution Vd” value came to 0.57 L/kg, the “Area under curve AUC0-inf” value stood at 6.689 µM·h and the “Half life T1/2” value was 52.8 min. In addition, the C0 in data set [4] (IV @ 1 mpk, plasma, read-out: Initial concentration C0) came to 3.71 µM. For the same molecule, the “Bioavailability F %” value in data set [4] (PO @ 3 mpk vs IV @ 1 mpk) amounted to 76%. Further, in data set [4] (PO @ 3 mpk), the “Area under curve AUC0-inf” value was found to be 19.769 µM·h and the “Time of peak concentration Tmax” value stood at 15 min. Moreover, the “drug concentration in cerebrospinal fluid at 0.5 hour CSF@0.5 h” value in data set [4] (PO @ 3 mpk, CSF, 0.5 h) is listed as 63 nmol/kg. For the same molecule, the “drug concentration in cerebrospinal fluid at 2 hour CSF@2 h” value in data set [4] (PO @ 3 mpk, CSF, 2 h) is given as 21 nmol/kg. In addition, the “drug concentration in brain at 0.5 h Brain@0.5 h” value in data set [4] (PO @ 3 mpk, brain, 0.5 h) was 663 nmol/kg. In addition, in data set [4] (PO @ 3 mpk, brain, 2 h), the “drug concentration in brain at 2 h Brain@2 h” value turned out to be 343 nmol/kg. Further, the Cmax in data set [4] (PO @ 3 mpk, read-out: Peak concentration Cmax) was 4.74 µM.

With `O=C1N[C@@H]2COC[C@@H]2Oc2ncc(F)cc2[C@H]2CCON2c2ccn3ncc1c3n2` [WX008A], the GI50 in data set [3] turned out to be 1.59 nM. Further, the pIC50 at ALK is 7.98.
